# DBAASP
# Where “and” joins values, the source holds several entries; their conditions need not be identical. Equal values may be shown once.
# What was measured:
# Assay in all cases: ≥ marks a high value that may be exact or a test limit, other limits are often not marked, values filed in µg/mL are converted to µM
# [1] = system: Escherichia coli NCTC 10418
# [2] = system: Bacillus cereus
# [3] = system: Escherichia coli
# [4] = system: Staphylococcus aureus ATCC 6538
# [5] = system: Staphylococcus aureus
# [6] = system: Lactococcus lactis
# [7] = system: Escherichia coli ATCC 25922
# [8] = system: Klebsiella pneumoniae ST258
# [9] = system: Mycobacterium tuberculosis FYX
# [10] = system: Mycobacterium tuberculosis WXY
# [11] = system: Mycobacterium tuberculosis CAS3
# [12] = system: Mycobacterium tuberculosis H37Rv
# [13] = system: Mycobacterium tuberculosis
# [14] = system: Pseudomonas aeruginosa ATCC 27853
# [15] = system: Nocardia brasiliensis IP16-80
# [16] = system: Trichophyton rubrum IP2043-92
# [17] = system: Enterococcus faecalis IP103214
# [18] = system: Saccharomyces cerevisiae IP118079
# [19] = system: Aeromonas caviae IP67-16T
# [20] = system: Trichophyton mentagrophytes IP877-71
# [21] = system: Escherichia coli IP76-24
# [22] = system: Aspergillus niger IP218-53
# [23] = system: Trichophyton simii J43 IP903-65
# [24] = system: Trichophyton simii IP1063-74
# [25] = system: Candida albicans IP886-65
# [26] = system: Staphylococcus aureus IP76-25
# [27] = system: Candida albicans IP884-65
# [28] = system: Microsporum canis IP1194
# [29] = system: Cryptococcus neoformans IP960-67
# [30] = system: Cryptococcus neoformans IP962-67
# [31] = system: Aspergillus fumigatus IP1025-70
# [32] = system: Candida krusei
# [33] = system: Staphylococcus epidermidis ATCC 12228
# [34] = system: Escherichia coli ATCC 10536
# [35] = system: Acinetobacter baumannii ATCC 19606
# [36] = system: Candida krusei ATCC 20029
# [37] = system: Aggregatibacter actinomycetemcomitans ATCC 29522
# [38] = system: Cryptococcus neoformans
# [39] = system: Cryptococcus gattii ATCC 32608
# [40] = system: Cryptococcus neoformans ATCC 24067
# [41] = system: Streptococcus sanguinis ATCC 10556
# [42] = system: Cupriavidus necator H16
# [43] = system: Pseudomonas putida GPp104
# [44] = system: Escherichia coli JM109
# [45] = system: Escherichia coli BL21(DE3)
# [46] = system: Aspergillus fumigatus
# [47] = system: Micrococcus luteus A270
# [48] = system: Neurospora crassa CBS 327-54
# [49] = system: Escherichia coli D22
compound,measurement,setting,value
CC[C@H](C)[C@H](NC(=O)[C@H](CCCCN)NC(=O)[C@H](CCCCN)NC(=O)[C@H](CC(C)C)NC(=O)[C@H](CC(=O)O)NC(=O)[C@@H](NC(=O)[C@@H](N)Cc1ccccc1)C(C)C)C(=O)N[C@@H](C)C(=O)N[C@@H](CC(N)=O)C(=O)N[C@H](C(=O)N[C@H](C(=O)N[C@@H](CC(N)=O)C(=O)N[C@@H](CO)C(=O)N[C@H](C(=O)N[C@@H](Cc1ccccc1)C(N)=O)[C@@H](C)CC)[C@@H](C)CC)[C@@H](C)CC [FVDLKKIANIINSIF],MIC,[1],≥ 100 µM
same,MIC,[2],14.4 µM
same,MIC,[3],> 100 µM
same,MIC,[4],3.1 µM
same,MIC,[5],14.4 µM
same,MIC,[6],14.4 µM
CC(C)C[C@H](NC(=O)[C@H](CCCCN)NC(=O)[C@H](CCCCN)NC(=O)[C@H](CO)NC(=O)[C@H](Cc1ccccc1)NC(=O)[C@H](CCCCN)NC(=O)[C@H](CCCCN)NC(=O)[C@H](CC(C)C)NC(=O)CNC(=O)[C@H](CCCCN)NC(=O)[C@H](CC(C)C)NC(=O)CNC(=O)[C@H](Cc1c[nH]c2ccccc12)NC(=O)[C@@H](N)Cc1ccccc1)C(=O)O [FWGLKGLKKFSKKL],MIC,[7],25 µM
same,MIC,[8],29.8 µM
same,MIC,[9],11.2 µM
same,MIC,[10],22.3 µM
same,MIC,[11],11.2 µM
same,MIC,[12],11.9 µM and 11.2 µM
same,MIC,[13],5.95 µM
same,MIC,[14],> 29.8 µM
CC[C@H](C)[C@H](NC(=O)[C@H](CCCCN)NC(=O)[C@H](CO)NC(=O)[C@H](Cc1c[nH]c2ccccc12)NC(=O)[C@H](CC(C)C)NC(=O)CN)C(=O)N[C@@H](CCCCN)C(=O)N[C@H](C(=O)N[C@@H](C)C(=O)NCC(=O)N[C@@H](CCCCN)C(=O)N[C@@H](CO)C(=O)N[C@H](C(=O)N[C@@H](C)C(=O)N[C@@H](CCCCN)C(=O)N[C@@H](C)C(=O)N[C@@H](C)C(=O)N[C@@H](C)C(=O)N[C@@H](CCCCN)C(=O)N[C@@H](C)C(=O)N[C@@H](C)C(=O)N[C@H](C(=O)N[C@@H](CCCCN)C(=O)N[C@@H](C)C(=O)N[C@H](C(=O)N[C@H](C(=O)N[C@@H](CC(N)=O)C(=O)N[C@@H](C)C(=O)N[C@H](C(=O)O)C(C)C)[C@@H](C)O)C(C)C)C(C)C)C(C)C)[C@@H](C)O [GLWSKIKTAGKSVAKAAAKAAVKAVTNAV],MIC,[15],≥ 40 µM
same,MIC,[16],20 µM
same,MIC,[17],≥ 40 µM
same,MIC,[18],5 µM
same,MIC,[19],≥ 35 µM
same,MIC,[20],20 µM
same,MIC,[21],≥ 35 µM
same,MIC,[22],30 µM
same,MIC,[23],20 µM
same,MIC,[24],30 µM
same,MIC,[25],10 µM
same,MIC,[26],2 µM
same,MIC,[27],10 µM
same,MIC,[28],15 µM
same,MIC,[29],1 µM
same,MIC,[30],1 µM
same,MIC,[31],≥ 70 µM
CC[C@H](C)[C@H](N)C(=O)N[C@@H](Cc1c[nH]c2ccccc12)C(=O)N[C@@H](CC(C)C)C(=O)N[C@H](C(=O)N[C@@H](C)C(=O)N[C@@H](CC(C)C)C(=O)N[C@@H](CCCCN)C(=O)N[C@@H](Cc1ccccc1)C(=O)N[C@@H](CC(C)C)C(=O)NCC(=O)N[C@@H](CCCCN)C(=O)N[C@@H](CC(N)=O)C(=O)N[C@@H](CC(C)C)C(=O)NCC(=O)N[C@@H](CCCCN)C(=O)N[C@@H](Cc1cnc[nH]1)C(=O)N[C@@H](CC(C)C)C(=O)N[C@@H](C)C(=O)N[C@@H](CCCCN)C(=O)N[C@@H](CCC(N)=O)C(=O)N[C@@H](CCC(N)=O)C(=O)N[C@@H](CC(C)C)C(=O)N[C@@H](C)C(=O)N[C@@H](CCCCN)C(=O)N[C@@H](CC(C)C)C(N)=O)[C@@H](C)O [IWLTALKFLGKNLGKHLAKQQLAKL],MIC,[32],26.3 µM
same,MIC,[33],0.7 µM
same,MIC,[34],5.52 µM
same,MIC,[35],0.7 µM
same,MIC,[4],5.52 µM
same,MIC,[36],14.2 µM
same,MIC,[37],10.6 µM
same,MIC,[38],13.2 µM
same,MIC,[39],2.23 µM
same,MIC,[40],7.11 µM
same,MIC,[41],10.9 µM
same,MIC,[14],2.82 µM
CC[C@H](C)[C@H](NC(=O)[C@H](Cc1ccc(O)cc1)NC(=O)[C@@H](NC(=O)[C@@H]1CCCN1C(=O)[C@H](CCCN=C(N)N)NC(=O)[C@@H](NC(=O)[C@@H]1CCCN1C(=O)[C@@H](N)CCCN=C(N)N)C(C)C)C(C)C)C(=O)N1CCC[C@H]1C(=O)N[C@@H](CCC(N)=O)C(=O)N1CCC[C@H]1C(=O)N[C@@H](CCCN=C(N)N)C(=O)N1CCC[C@H]1C(=O)N1CCC[C@H]1C(=O)N[C@@H](Cc1cnc[nH]1)C(=O)N1CCC[C@H]1C(=O)N[C@@H](CCCN=C(N)N)C(=O)N[C@@H](CC(C)C)C(=O)O [RPVRPVYIPQPRPPHPRL],MIC,[42],10 µM
same,MIC,[43],6.25 µM
same,MIC,[44],6.25 µM
same,MIC,[45],0.313 µM
CSCC[C@H](NC(=O)[C@H](CO)NC(=O)[C@@H](N)CO)C(=O)N[C@@H](CCCCN)C(=O)N[C@@H](CC(C)C)C(=O)N[C@@H](CO)C(=O)N[C@@H](Cc1ccccc1)C(=O)N[C@@H](CCCN=C(N)N)C(=O)N[C@@H](C)C(=O)N[C@@H](CCCN=C(N)N)C(=O)N[C@@H](C)C(=O)N[C@@H](Cc1ccc(O)cc1)C(=O)NCC(=O)N[C@@H](Cc1ccccc1)C(=O)N[C@@H](CCCN=C(N)N)C(=O)NCC(=O)N1CCC[C@H]1C(=O)NCC(=O)N[C@@H](CC(C)C)C(=O)N[C@@H](CCC(N)=O)C(=O)N[C@@H](CC(C)C)C(=O)O [SSMKLSFRARAYGFRGPGLQL],MIC,[46],≥ 100 µM
same,MIC,[47],10 µM
same,MIC,[48],10 µM
same,MIC,[49],≥ 100 µM
